Reference: patent US20220030866A1, “CONJUGATES OF AUXIN ANALOGS” (The State of Israel, Ministry of Agriculture & Rural …, priority 2019, published 2022)

Key:
[1] = tested on: cuttings from mature Eucalyptus grandis trees; assay: rooting of cuttings from mature Eucalyptus grandis trees; type: in vivo
Description: Eight-year-old Eucalyptus grandis plants were grown from seeds and placed in a net house in 20 liter pots containing peat and tuff (70:30, v/v), drip irrigated and fertilized with 3 liters of Shefer™ 737 liquid fertilizer (ICL Fertilizers, Israel) per cubic meter of water. Cuttings were collected from branches which grew 2-2.5 meters above the ground. Cuttings were 2-3 mm thick branches, 15 cm long, with 1-2 pairs of leaves. The leaf blades were cut in half to decrease transpiration. Cuttings were treated with 6000 ppm IBA (potassium indole-3-butyric acid) for 1 minute with or without 100 μM of each tested compound. The tested compounds were either applied to the base of the cutting, with or without IBA and/or sprayed on the foliage in the presence of 0.05% Triton™ X-100 surfactant. Cuttings were rooted in rooting tables heated to 25° C. under constant 90% humidity, in a controlled-climate greenhouse. The rooting medium contained crushed polystyrene foam: vermiculite no. 3: pit (3:2:1, v/v/v). Rooting was recorded after 30-60 days. Roots system architecture was analyzed by WinRHIZO™ system scanner and software.
Exemplary conjugates prepared as described in Example 1 were tested for their ability to promote adventitious root (AR) formation in cuttings from mature eucalyptus (Eucalyptus grandis) trees. In this model, AR formation is difficult to induce, with 5-15% root development in the presence of IBA potassium salt [Abu-Abied et al., Plant J 2012, 71:787-799], such that effective AR formation indicates a potent root formation activity.
Various concentrations and mode of applications were tested for each compound in the presence or absence of IBA (the “gold standard” rooting enhancer). A concentration of 100 μM of each conjugate was used for an initial screen of 37 conjugates, in which the compounds were applied to the base of the cutting by dipping (submerging the cutting base in a solution of the conjugate for one minute) or to the foliage by spraying. After 45 days, the cuttings were scored for the presence of callus or roots.
Conjugates prepared as described herein were evaluated in a Eucalyptus grandis rooting model, according to procedures such as described hereinabove. The bases of cuttings (a 12-15 cm long branch with the two upper leaves, whose blades were cut in half) were dipped in a solution containing 6000 ppm IBA potassium salt and 50 μM of conjugate for 1 minute, and the leaves were sprayed with 50 μM of the same conjugate (mixed with 0.5% Triton™ X-100 surfactant). The cuttings were imbedded in a heated (25° C.) rooting table containing a 1:2:3 ratio of peat:vermiculite:polystyrene, under 90% relative humidity.

Arabidopsis seedlings [2] = assay: adventitious root formation in intact etiolated Arabidopsis seedlings; type: in vivo
Description: (§1) Adventitious roots (ARs) were induced in intact plants, using previously described procedures [Gutierrez et al., Plant Cell 2009, 21:3119-3132; Abu-Abied et al., Plant J 2012, 71:787-799; Rasmussen et al., Plant Physiol 2012, 158:1976-1987]. Briefly, seeds were germinated on MS/0.8% agar plates supplemented with 3% sucrose. The plates were kept in the dark for 2 days at 4° C., then 5 days at 22° C. in the dark, 2 days in the light, 3 days in the dark and then additional 4 days in the light to complete 2 weeks when roots were counted using a stereoscope. Sensitivity to auxin and/or auxin analogs was determined by following root elongation on vertical plates. The 4-day-old seedlings were transferred to MS plates containing 0.05 or 0.5 μM IAA and the root length was measured after 5 days, including the number of LRs in each root and calculation of the LR density. Each treatment experiment included 10-15 plants and was repeated 3 times.
In a third assay utilizing an Arabidopsis model, induction of adventitious root AR formation in intact plants was examined in the presence of 50 nM of tested compounds, which included 5 days incubation in the dark, followed by a shift to the light, according to procedures described by Sorin et al. [Plant Cell 2005, 17:1343-1359].
Conjugates prepared as described herein were evaluated in an Arabidopsis rooting model, according to procedures such as described hereinabove. Seeds were germinated and kept in the dark for 4 days. The etiolated seedlings were then incubated for 1 hour in 10 μM of each compound and then transferred to vertical MS medium-containing plates.

[3] = tested on: argan (Argania spinosa) cuttings; assay: rooting of argan cuttings; type: in vivo
Description: The ability of exemplary conjugates to promote rooting in plants which are recalcitrant to rooting (in addition to the results obtained with Eucalyptus grandis in Example 3) was examined using cuttings of argan (Argania spinosa) and jojoba (Simmondsia chinensis) in a commercial nursery (Shorashim). The argan and jojoba cuttings were treated with 100 μM of a conjugate (any of Compounds 10-1t) with 6000 ppm IBA. The common treatment T-8 (talc with 8000 ppm IBA and a fungicide) or 6000 ppm IBA (without conjugate) served as a control.
(§2) Exemplary conjugates were also tested for rooting the hard-to-root species of avocado (VC801 rootstock) and argan, according to procedures described hereinabove.

[4] = tested on: avocado rootstock cuttings; assay: rooting of avocado rootstock cuttings; type: in vivo
Text: Avocado rootstock is extremely difficult to root. Currently, the common technique for propagating clones of avocado rootstock is to graft the desired rootstock on a seedling, and transfer to the dark to generate an etiolated branch. This branch can be rooted and grafted with the desired variety while still grafted on the seed [Frolich & Platt, California Avocado Society 1971-72 Yearbook 1972, 55:97-109]. However, the preparation of such twice-grafted seedlings is time-consuming and expensive.
The ability of exemplary conjugates to promote rooting in green avocado cuttings (in the presence of IBA) was therefore examined. In particular, Compounds 2h (MCPA-methanol), 4b (NAA-β-alanine methyl ester), 3g (2-DP-methyl-4-aminobenzoate), 3f (2-DP-p-toluidine), 1l (4-CPA-morpholine) and is (4-CPA-D-Trp) were tested.
as §2

mung bean cuttings = assay: rooting of mung bean cuttings (number of adventitious roots per cutting); type: in vivo; settings: for rooting of mung bean cuttings (number of roots per cutting): 50 μM
Summary of the method: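 Readout was the number of adventitious roots per cutting in mung bean cuttings. Conjugates of 4-CPA, MCPA and 2-DP were tested alongside unconjugated IBA and 2-DP–glycine methyl ester.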

DR5:venus marker = assay: auxin activity by DR5:venus fluorescence in Arabidopsis plants; type: in vivo; settings: 10 μM
Description: Imaging was performed using an SP8 Leica confocal microscope including solid-state lasers producing 405, 488, 514 and 552 nm light, and hybrid or PMT detectors. Objectives were either PL APO 20×/0.75, WD 0.62 mm or PL APO 63×/1.2 WD 0.3 mm. For fluorescence measurements, the Imaris™ spot detection option (Bitplane A.G.) was used to segment nuclei and calculate the average signal intensity.
One technique for assessing auxin activity of the 4-CPA amino acid conjugates utilized plants expressing nucleus-localized, fluorescent DR5:venus marker, the expression level of which is an indicator of intracellular auxin activity [Laskowski et al., PLoS Biol 2008, 6:e307]. Four days old seedlings grown on regular MS medium were transferred to plates containing 10 μM of the tested compounds and fluorescence was inspected by confocal microscope after 24 hours.
In order to assess the ability of the abovementioned sodium salts to penetrate the cells and activate an auxin response, an Arabidopsis DR5-Venus model was utilized (as described hereinabove). The plants were exposed to 10 μM of each compound for 24 hour; MS medium was used as a negative control, and the related Compounds 1p, 1r and 1t were used as positive controls.

Arabidopsis seedlings [5] = assay: root elongation inhibition in Arabidopsis seedlings; type: in vivo; settings: for effect on root elongation relative to control, in words: after 5 days
Description: as §1
A common technique for evaluating auxin activity is by determining the ability of a compound to inhibit root elongation [Zolman et al., Genetics 2000, 156:1323-1337]. In order to use this assay for comparing auxin activities of different conjugates, the minimum concentration of free 4-CPA that is active in the root elongation inhibition assay was determined. Four days old seedlings were placed in vertical plates containing increasing concentrations of 4-CPA. The root lengths were marked daily during 5 days.
Based on the above results, the effect of conjugates of 4-CPA (Compounds 1o-1t) on root elongation after 5 days was determined at concentrations of 50 nM.

Arabidopsis seedlings [6] = assay: split petri dish assay, separate shoot or root application in etiolated Arabidopsis seedlings; type: in vivo; settings: 10 μM
Text: The observation that AR enhancement in Eucalyptus cuttings was higher when 4-CPA conjugates were applied also to the leaves (as described in Example 3) prompted further investigation into the functions of shoot-derived 4-CPA. To this end, 4-CPA or Compounds 1p and it were applied specifically to roots or shoots of five-day old etiolated Arabidopsis seedlings using a split petri dish (as depicted in FIG. 26) and the effect on root elongation, lateral root (LR) formation and adventitious root (AR) formation was evaluated.
Arabidopsis plants were germinated and grown in the dark for 5 days, then then transferred to petri dishes with a partition in the middle. Each half of these plates contained either medium alone or with 10 μM of 4-CPA or Compound 1p or 1tl. The etiolated seedlings were put on the plates with their collet region on the partition such that either the hypocotyl and cotyledons, or the root or both were in touch with the medium containing the tested compound. Adventitious roots and lateral roots were counted and the length of the primary root was measured after a week.

[7] = tested on: cuttings from mature Eucalyptus grandis trees; assay: rooting of cuttings from mature Eucalyptus grandis trees; type: in vivo; settings: 100 μM compound by submerging or spraying, with 6000 ppm IBA
[8] = tested on: Eucalyptus brachyphylla cuttings; assay: rooting of Eucalyptus brachyphylla cuttings; type: in vivo; settings: K-IBA alone or with 100 μM compound
Description: (§3) In order to investigate cloning of productive eucalyptus trees from cuttings, branches were excised from mature Eucalyptus x trabutii and Eucalyptus brachyphylla trees the field (in Kfar Pines, Israel)—selected based on their exceptional nectar production and honeybee attraction—placed in a humidified cooler box and brought to a climate-controlled greenhouse within 2 hours. Each cutting, 7 cm long, included three nodes with only two leaves remaining at its apical end. Two-thirds of each blade was excised to minimize evapotranspiration. The cutting bases were submerged for 1 minute in 6 grams/liter indole-3-butyric acid potassium salt (K-IBA), optionally supplemented with Compound 1s or 1t at a concentration of 100 μM. In addition, the leaves were sprayed with 100 μM of each compound in the presence of 0.05% Triton X-100 surfactant. Stock solutions of Compounds 1s and 1t were at a concentration of 100 mM in DMSO. The cuttings were planted in rooting medium containing peat, vermiculite and polystyrene flakes at a ratio of 1:2:3 respectively, on a heated rooting table under 90% humidity. Fungicides were applied to the rooting media on a weekly basis. Rooting percentage, number of roots per cutting and root length were measured after 1 and 2 weeks and after 1 and 2 months.

[9] = tested on: Eucalyptus x trabutii cuttings; assay: rooting of Eucalyptus x trabutii cuttings; type: in vivo; settings: K-IBA alone or with 100 μM compound
Description: as §3

[10] = tested on: cuttings from mature Eucalyptus grandis trees; settings: literature value for this model (Abu-Abied et al. 2012); cited from earlier work
[11] = after 1.5 months, compound with IBA, or IBA control

## COC(=O)[C@H](CC(C)C)NC(=O)COc1ccc(Cl)cc1 [4-CPA-L-Leu-methyl ester]
[1]; Example 12: 6000 ppm IBA and 50 μM conjugate dip plus spray
  root number compared to IBA control, in words: promoted an increase in root number
Arabidopsis seedlings [2]; Example 12: etiolated seedlings, 1 hour in 10 μM
  average number of adventitious roots: 10
[3]; in vivo
  number of roots per cutting in argan clone YM3 compared to IBA control, in words: considerably increased the number of roots per cutting
[4]; VC801 rootstock
  root architecture / root length of VC801 avocado cuttings compared to IBA control, in words: considerably increased root length

## COC(=O)[C@@H](NC(=O)COc1ccc(Cl)cc1)C(C)C [Compound 1p, 4-CPA-L-Val]
Mung bean cuttings; tested at 2, 10 or 50 μM
  effect on AR formation in mung bean cuttings, in words: induced rooting only at low concentrations
[1]; 6000 ppm IBA and 100 μM conjugate by submersion of base plus spraying of foliage
  percentage of adventitious root formation (rooting): 51±8%
[1]; 6000 ppm IBA with 100 μM compound, submersion and spraying
  appearance of the roots compared with IBA alone: appeared more branched
DR5:venus marker
  effect on root tip and root elongation zone: loss of auxin activity at the root tip, and swelling of the root elongation zone
Arabidopsis seedlings [5]; 50 nM
  effect on root elongation relative to control, in words: inhibited root elongation relative to control
Arabidopsis seedlings [5]; 50 nM, slight inhibition until day 3, complete from day 4
  time course of root elongation inhibition: biphasic behavior
Arabidopsis seedlings [2]; intact etiolated seedlings, 50 nM, FIG. 17 legend 10 μM for one hour
  adventitious roots formed on average: 7±1.4
Arabidopsis seedlings [6]; 24 hours on split dish
  effect on root growth of application to the shoot compared with application directly to the root: even stronger
Arabidopsis seedlings [6]; split dish
  adventitious root formation, exposure of shoots compared to exposure of roots: significantly more adventitious root formation
  lateral root formation, shoot application compared with root application: inhibited lateral root formation more efficiently than application to roots
[7]
  rooting in combination with IBA compared with IBA alone, in words: at least as potent as that of their corresponding D-amino acid conjugates

## O=C(O)CCCc1c[nH]c2ccccc12 [IBA, indole-3-butyric acid, reference compound]
Mung bean cuttings; Table 1, water control 29.6
  rooting of mung bean cuttings (number of roots per cutting): 81.0
Mung bean cuttings; Table 2
  rooting of mung bean cuttings (number of roots per cutting): 101
[1]; 100 μM conjugate without IBA, or 28 mM (6000 ppm) IBA alone, submerging base or spraying, scored after 45-60 days
  percentage of cuttings which exhibited rooting, stand-alone treatment: 12%
[1]; Example 12 repeat: 6000 ppm IBA with 50 μM conjugate, or IBA control
  rooting of cuttings, repeated experiment in a different season: 10%
Arabidopsis seedlings [5]; 50 nM
  effect on root elongation relative to control, in words: no apparent inhibitory effect on root elongation
Arabidopsis seedlings [5]; 4 day old seedlings, 5 days on vertical plates
  concentration required to inhibit root elongation: 1 to 10 µM
[3]; [11]
  rooting in argan clone YM3: 50%
  roots per cutting in argan clone YM3: 2-3
[4]; VC801 rootstock, conjugate, or IBA control
  rooting of VC801 avocado cuttings: about 35%
[4]; vc51 rootstock, IBA
  rooting rate of etiolated avocado branches: 80%
  rooting rate of green avocado branches: 10%
[8]
  mean root number per cutting, E. brachyphylla: about 4
[9]
  mean root number per cutting, E. x trabutii: about 5
[10]
  root development in the presence of IBA potassium salt: 5-15%
